Experiments:
3a-HSD = biological target: T1, 3a-HSD (Homo sapiens, UniProt P52895); test: NMR ligand binding (line broadening of ligand resonances in the presence of protein); settings: ligand resonances in the presence of 3a-HSD
T1 construct: Full length type III 3a-HSD cDNA is amplified by RT-PCR from human fetal brain total RNA; made in house; host or cells: E. coli BL21 (DE3)
T1 sequence (P52895 1-323): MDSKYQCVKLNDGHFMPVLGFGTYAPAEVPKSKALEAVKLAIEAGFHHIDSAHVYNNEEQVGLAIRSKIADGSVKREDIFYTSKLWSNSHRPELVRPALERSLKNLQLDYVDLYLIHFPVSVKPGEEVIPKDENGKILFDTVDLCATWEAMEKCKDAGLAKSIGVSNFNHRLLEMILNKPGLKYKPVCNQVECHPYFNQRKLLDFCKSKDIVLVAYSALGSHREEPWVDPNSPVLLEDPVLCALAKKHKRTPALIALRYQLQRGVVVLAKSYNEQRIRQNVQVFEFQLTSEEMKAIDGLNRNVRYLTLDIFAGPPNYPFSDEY
From the text: Binding of natural ligands is a prerequisite for functionality. One method to detect ligand binding by NMR takes advantage of the increased transverse relaxation rates of the ligand protons when the ligand is bound. Increased line widths in the presence of protein thus indicates binding. Binding experiments of NADP to 3a-HSD are done and check by NMR. In the presence of 3a-HSD, the NADP peaks are broadened so much that they are hardly visible in the spectrum.
(§1) Even then, the maximum achievable concentration of allo-pregnanolone is only about 20 μM. […] Based on the NMR analysis, 3a-HSD appears well-folded and functional in respect to cofactor- and ligand-binding.

[1] = maximum achievable concentration in aqueous NMR sample with co-solvents; type: physicochemical; settings: water with 2% DMSO-d6 and 5% ethanol as co-solvents
Procedure: as §1

[2] = biological target: T2, recombinant type-3 human 3a-HSD (Homo sapiens, UniProt P52895); test: functional in vitro assay, oxidation of 3H-ALLO to 3H-5α-DHP; type: biochemical; settings: NADP+, pH 7.4, 37° C., read-out: Ki OX
T2 construct: Full length type III 3a-HSD cDNA is amplified by RT-PCR from human fetal brain total RNA; made in house; host or cells: E. coli BL21 (DE3)
T2 sequence (P52895 1-323): T1 sequence (P52895 1-323)
From the text: (§2) Materials: Steroid standards (>98% purity) were purchased from Sigma Chemical Co. ^3H-allopregnanolone (64 Ci/mmol, [9, 11, 12-^3H(N)]-allopregnanolone, herein after referred to as ^3H-ALLO) was purchased from New England Nuclear. ^3H-5α-dihydroprogesterone (^3H-5α-DHP) was synthesized in our lab using an enzymatic conversion of ^3H-ALLO to ^3H-5α-DHP by the 3a-HSD (see Enzymatic reactions). The oxidation product ^3H-5α-DHP was isolated and purified by semi-preparative HPLC and confirmed by GC/MS. All solvents were of analytical grade (Merck) and were used without further purification.
(§3) Enzymatic reactions (oxidation of ^3H-ALLO to ^3H-5α-DHP and reduction of ^3H-5α-DHP to ^3H-ALLO): All enzymatic reactions were performed using pure recombinant type-3 human 3a-HSD expressed in E. coli and refolded and purified from bacterial inclusion bodies. ^3H-5a-DHP reduction was conducted in 100 μl reaction systems containing 100 mM sodium phosphate (pH 7.4), 4 μg of recombinant enzyme, 2 mM NADPH and 2.5 μM ^3H-5α-DHP (40 000 cpm) in 4% acetonitrile. Similarly, ^3H-ALLO oxidation was conducted in 100 μl reaction systems containing 100 mM sodium phosphate (pH 7.4), 4 μg of recombinant enzyme, 2 mM NADP^+ and 2.5 μM ^3H-ALLO (40 000 cpm) in 4% acetonitrile. Reactions were initiated by the addition of the respective substrate and were incubated at 37° C. for 25 min. […]

3a-HSD type III = biological target: T3, 3a-HSD type III (Homo sapiens, UniProt P52895); test: NMR screening of fragment library; type: binding
T3 construct: Full length type III 3a-HSD cDNA is amplified by RT-PCR from human fetal brain total RNA; made in house; host or cells: E. coli BL21 (DE3)
T3 sequence (P52895 1-323): T1 sequence (P52895 1-323)
From the text: NMR spectroscopy can be used to discover and design inhibitors of 3a-HSD type III. This is due to the well-known ability of NMR to detect interactions between ligands and a target protein, even if the interactions are only weak and have affinities in the millimolar range (Diercks, T.; Coles, M.; Kessler, H. Applications of NMR in drug discovery. Curr. Opin. Chem. Biol. 2001, 5, 285-291; Hajduk, P. J.; Meadows, R. P.; Fesik, S. W. NMR-based screening in drug discovery. Q. Rev. Biophys. 1999, 32, 211-240; Pellecchia, M.; Sem, D. S.; Wuthrich, K. NMR in drug discovery. Nature Reviews Drug Discovery 2002, 1, 211-219). For this purpose, a solution of 3a-HSD is added to a mixture of compounds, and NMR properties of the compounds, such as their relaxation rates, are measured and compared in the presence and absence of 3a-HSD. […] This effect can be enhanced by about a factor of 15 if side chains of 3a-HSD are spin-labeled with paramagnetic centers such as TEMPO (2,2,6,6-Tetramethylpiperidin-N-oxyl) or PROXYL (2,2,5,5-Tetramethylpyrrolidine-N-oxyl) (Jahnke, W.; Ruedisser, S.; Zurini, M. Spin Label Enhanced NMR Screening. J. Am. Chem. Soc. 2001, 123, 3149-3150; Jahnke, W. Spin labels as a tool to identify and characterize protein—ligand interactions by NMR spectroscopy. ChemBioChem 2002, 3, 167-173). […]

[3] = substrate: CC(=O)[C@H]1CC[C@H]2[C@@H]3CC[C@H]4C[C@H](O)CC[C@]4(C)[C@H]3CC[C@]12C; test: functional in vitro assay, oxidation of 3H-ALLO to 3H-5α-DHP; type: biochemical; settings: other: oxidation of ALLO by the type-3 human 3a-HSD; pH 7.4; 37.0 °C
From the text: as §2, §3

Molecule: NC(=O)c1ccc[n+]([C@@H]2O[C@H](COP(=O)([O-])OP(=O)(O)OC[C@H]3O[C@@H](n4cnc5c(N)ncnc54)[C@H](OP(=O)(O)O)[C@@H]3O)[C@@H](O)[C@H]2O)c1 [NADP]
- binding to 3a-HSD detected by NMR line broadening (3a-HSD): proves binding

Molecule: CC(=O)[C@H]1CC[C@H]2[C@@H]3CC[C@H]4C[C@H](O)CC[C@]4(C)[C@H]3CC[C@]12C [allopregnanolone, 3α-hydroxy-5a-pregnan-20-one]
- maximum achievable concentration [1]: about 20 μM
- binding to 3a-HSD detected by NMR line broadening (3a-HSD): proven

Molecule: CC(=O)c1cc2ccccc2o1 [2-acetylbenzofuran]
- Ki [2]: ~132 µM
- binding to 3a-HSD (3a-HSD type III; NMR screening hit): only weakly
- dissociation rate (3a-HSD type III; observed by NMR, severe line broadening): so slow

B1: recombinant type-3 human 3a-HSD (Homo sapiens) (protein)
chain: T1 sequence (P52895 1-323)
- Km [3]: 4.9 µM
